How the values were obtained:
[1] = biological target: T1, PD-1/PD-L1 interaction (Homo sapiens, UniProt Q9NZQ7); test: PD-1/PD-L1 NFAT reporter co-culture assay; format: cell-based; conditions: Jurkat PD-1 NFAT-luciferase cells co-cultured with aAPC-PD-L1 CHO cells, 6 hrs at 37° C.; read-out: EC50 NFAT Luciferase
T1 construct: expressed in transfected cells; host or cells: CHO cells (aAPC-PD-L1) co-cultured with Jurkat cells overexpressing PD-1 and an NFAT-luciferase reporter
Procedure, shortened: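 Compounds are scored by restoration of NFAT-luciferase signal in PD-1-expressing Jurkat cells cultured 6 h at 37 °C on CHO cells presenting anti-CD3 and PD-L1; EC50 values derive from four-parameter curve fitting.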

[2] = biological target: T2, PD-L1 (Homo sapiens, UniProt Q9NZQ7); test: PD-L1/PD-L1 dimerization biochemical protein-protein interaction assay (ALPHA); format: binding; conditions: compound-induced PD-L1 dimerization, head prints '1 nM' (0.5 nM His-tagged PD-L1 and 0.5 nM FLAG-tagged PD-L1), read-out: AC50 PDL1 Dimer Alpha 1 nM
T2 construct: determine if they can specifically dimerize the extracellular domains of PD-L1
T2 sequence (Q9NZQ7 19-238 limits assumed): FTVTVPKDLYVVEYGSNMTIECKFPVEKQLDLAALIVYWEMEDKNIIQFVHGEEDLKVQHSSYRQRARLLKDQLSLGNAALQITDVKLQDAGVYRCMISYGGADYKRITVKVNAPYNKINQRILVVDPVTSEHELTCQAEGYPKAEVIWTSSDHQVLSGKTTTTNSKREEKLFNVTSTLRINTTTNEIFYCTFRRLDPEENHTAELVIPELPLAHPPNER
T2 sequence (Q9NZQ7 19-238 limits assumed): as above
Procedure, shortened: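 ALPHA proximity assay of compound-induced dimerization of 0.5 nM His-tagged and 0.5 nM FLAG-tagged PD-L1 extracellular domains in Hepes pH 7.4 buffer, 2 h at 25 °C. Anti-His acceptor then anti-FLAG donor beads, 60 min each; AC50 from four-parameter fit.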

[3] = biological target: PD-1/PD-L1 (Homo sapiens, UniProt Q9NZQ7); test: PD-1/PD-L1 biochemical protein-protein interaction assay (ALPHA); format: binding; conditions: 0.3 nM His tagged PD-L1, 2.5 nM biotinylated Fc-PD-1, 60 minutes at 25° C., read-out: IC50 PD-L1-PD-1 Alpha IC50-mono PD-L1-fcP-D1
Chain of PD-1/PD-L1 (Q9NZQ7 19-238 limits assumed): as above
Procedure, shortened: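 ALPHA bead proximity assay of extracellular domains: 0.3 nM His-PD-L1 with 2.5 nM biotinylated Fc-PD-1 in 25 mM Hepes pH 7.4, 150 mM NaCl, 3.4 mM EDTA, 0.005% Tween 20, 0.01% BSA, 60 min at 25 °C. Anti-His acceptor and streptavidin donor beads added; IC50 from four-parameter fit of signal loss.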

T1 sequence (Q9NZQ7 19-290): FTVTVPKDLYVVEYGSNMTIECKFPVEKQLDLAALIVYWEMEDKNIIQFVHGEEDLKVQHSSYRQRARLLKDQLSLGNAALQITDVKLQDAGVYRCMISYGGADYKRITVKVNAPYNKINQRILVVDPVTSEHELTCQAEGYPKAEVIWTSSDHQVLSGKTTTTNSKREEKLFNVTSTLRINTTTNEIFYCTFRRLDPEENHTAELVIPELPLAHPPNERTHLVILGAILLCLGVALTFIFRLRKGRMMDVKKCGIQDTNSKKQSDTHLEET

| EC50 [1] [nM] | AC50 [2] [nM] | IC50 [3] [nM] | SMILES |
| --- | --- | --- | --- |
| 389 | 173 | 0.21 | Cc1c(COc2cc(OCc3cncc(C#N)c3)c(CN[C@@](C)(CO)C(=O)O)cc2Cl)cccc1-c1cccc(-c2ccc3c(c2)CCC3N(C)CCO)c1C (stereo partly drawn) [Example 375, (2S)-2-((5-chloro-2-((5-cyanopyridin-3-yl)methoxy)-4-((3′-(1-((2-hydroxyethyl)(methyl)amino)-2,3-dihydro-1H-inden-5-yl)-2,2′-dimethyl-[1,1′-biphenyl]-3-yl)methoxy)benzyl)amino)-3-hydroxy-2-methylpropanoic acid] |
| 262 | 231 | 0.178 | Cc1c(COc2cc(OCc3cncc(C#N)c3)c(CN3C[C@@H](O)C[C@H]3C(=O)O)cc2Cl)cccc1-c1cccc(-c2ccc3c(c2)CC[C@H]3N(C)C)c1C [Example 377, (2S,4S)-1-(5-chloro-2-((5-cyanopyridin-3-yl)methoxy)-4-((3′-((R)-1-(dimethylamino)-2,3-dihydro-1H-inden-5-yl)-2,2′-dimethyl-[1,1′-biphenyl]-3-yl)methoxy)benzyl)-4-hydroxypyrrolidine-2-carboxylic acid] |
| 415 | 153 | 2.38 | Cc1c(COc2cc(OCc3cncc(C#N)c3)c(CNCCO)cc2Cl)cccc1-c1cccc(-c2ccc(C3CCCN3)cc2)c1C (stereo not drawn) [Example 379, 5-((4-chloro-5-((2,2′-dimethyl-4″-(pyrrolidin-2-yl)-[1,1′:3′,1″-terphenyl]-3-yl)methoxy)-2-(((2-hydroxyethyl)amino)methyl)phenoxy)methyl)nicotinonitrile] |
| 652 | 184 | 0.282 | Cc1c(COc2cc(OCc3cncc(C#N)c3)c(CNC[C@@H](O)CC(=O)O)cc2Cl)cccc1-c1cccc(-c2ccc([C@H](C)N(C)C)cc2)c1C [Example 380, (S)-4-((5-chloro-2-((5-cyanopyridin-3-yl)methoxy)-4-((4″-((S)-1-(dimethylamino)ethyl)-2,2′-dimethyl-[1,1′:3′,1″-terphenyl]-3-yl)methoxy)benzyl)amino)-3-hydroxybutanoic acid] |
| 219 | 144 | 0.158 | Cc1c(COc2cc(OCc3cncc(C#N)c3)c(CNC[C@@H](O)CC(=O)O)cc2Cl)cccc1-c1cccc(-c2ccc3c(c2)CCC3N(C)C)c1C (stereo partly drawn) [Example 381, (3S)-4-((5-chloro-2-((5-cyanopyridin-3-yl)methoxy)-4-((3′-(1-(dimethylamino)-2,3-dihydro-1H-inden-5-yl)-2,2′-dimethyl-[1,1′-biphenyl]-3-yl)methoxy)benzyl)amino)-3-hydroxybutanoic acid] |
| 1230 | 334 | 0.304 | Cc1c(COc2cc(OCc3cncc(C#N)c3)c(CN(C)C)cc2Cl)cccc1-c1cccc(-c2ccc(CN(C)C)nc2)c1C [Example 382, 5-((4-chloro-2-((dimethylamino)methyl)-5-((3′-(6-((dimethylamino)methyl)pyridin-3-yl)-2,2′-dimethyl-[1,1′-biphenyl]-3-yl)methoxy)phenoxy)methyl)nicotinonitrile] |
| 467 | 157 | 0.252 | Cc1c(COc2cc(OCc3cncc(C#N)c3)c(CNC[C@@H](O)CC(=O)O)cc2Cl)cccc1-c1cccc(-c2ccc(CN(C)C)cc2)c1C [Example 383, (S)-4-((5-chloro-2-((5-cyanopyridin-3-yl)methoxy)-4-((4″-((dimethylamino)methyl)-2,2′-dimethyl-[1,1′:3′,1″-terphenyl]-3-yl)methoxy)benzyl)amino)-3-hydroxybutanoic acid] |
| 154 | 154 | 0.112 | Cc1c(COc2cc(OCc3cncc(C#N)c3)c(CNC[C@@H](O)CC(=O)O)cc2Cl)cccc1-c1cccc(-c2ccc(CNC[C@@H](O)CC(=O)O)cc2)c1C [Example 384, (S)-4-((4-((4″-((((S)-3-carboxy-2-hydroxypropyl)amino)methyl)-2,2′-dimethyl-[1,1′:3′,1″-terphenyl]-3-yl)methoxy)-5-chloro-2-((5-cyanopyridin-3-yl)methoxy)benzyl)amino)-3-hydroxybutanoic acid] |
| 306 | 120 | 0.374 | COc1cc(COc2cccc(-c3cccc(COc4cc(OCc5cncc(C#N)c5)c(CNC[C@@H](O)CC(=O)O)cc4Cl)c3C)c2C)c(Cl)cc1CNC[C@@H](O)CC(=O)O [Example 389, (S)-4-((4-(((3′-((4-((((S)-3-carboxy-2-hydroxypropyl)amino)methyl)-2-chloro-5-((5-cyanopyridin-3-yl)methoxy)phenoxy)methyl)-2,2′-dimethyl-[1,1′-biphenyl]-3-yl)oxy)methyl)-5-chloro-2-methoxybenzyl)amino)-3-hydroxybutanoic acid] |
| 120 | 97.5 | 0.324 | Cc1c(COc2cc(OCc3cncc(C#N)c3)c(CNC[C@@H](O)CC(=O)O)cc2Cl)cccc1-c1cccc(OCc2cc(OCc3cncc(C#N)c3)c(CNC[C@@H](O)CC(=O)O)cc2Cl)c1C [Example 390, (S)-4-((4-((3′-((4-((((S)-3-carboxy-2-hydroxypropyl)amino)methyl)-2-chloro-5-((5-cyanopyridin-3-yl)methoxy)benzyl)oxy)-2,2′-dimethyl-[1,1′-biphenyl]-3-yl)methoxy)-5-chloro-2-((5-cyanopyridin-3-yl)methoxy)benzyl)amino)-3-hydroxybutanoic acid] |
| 305 | 243 | 1.42 | Cc1c(COc2cc(OCc3cncc(C#N)c3)c(CNCC3(O)CC3)cc2Cl)cccc1-c1cccc(-c2ccc(OCCNCCO)cc2)c1C [Example 391, 5-((4-chloro-2-((((1-hydroxycyclopropyl)methyl)amino)methyl)-5-((4″-(2-((2-hydroxyethyl)amino)ethoxy)-2,2′-dimethyl-[1,1′:3′,1″-terphenyl]-3-yl)methoxy)phenoxy)methyl)nicotinonitrile] |
| 351 | 232 | 0.051 | Cc1c(COc2cc(OCc3cncc(C#N)c3)c(CNC[C@@H](O)CC(=O)O)cc2Cl)cccc1-c1cccc(OCc2ccc(CNC[C@@H](O)CC(=O)O)cn2)c1C [Example 392, (S)-4-(((6-(((3′-((4-((((S)-3-carboxy-2-hydroxypropyl)amino)methyl)-2-chloro-5-((5-cyanopyridin-3-yl)methoxy)phenoxy)methyl)-2,2′-dimethyl-[1,1′-biphenyl]-3-yl)oxy)methyl)pyridin-3-yl)methyl)amino)-3-hydroxybutanoic acid] |
| 118 | 84 | 0.064 | Cc1c(COc2cc(OCc3cncc(C#N)c3)c(CNC[C@@H](O)CC(=O)O)cc2Cl)cccc1-c1cccc(-c2nc3c(Cl)cc(CNC[C@@H](O)CC(=O)O)cn3n2)c1C [Example 393, (S)-4-(((2-(3′-((4-((((S)-3-carboxy-2-hydroxypropyl)amino)methyl)-2-chloro-5-((5-cyanopyridin-3-yl)methoxy)phenoxy)methyl)-2,2′-dimethyl-[1,1′-biphenyl]-3-yl)-8-chloro-[1,2,4]triazolo[1,5-a]pyridin-6-yl)methyl)amino)-3-hydroxybutanoic acid] |

Reference: patent US12590062B2, “PD-1/PD-L1 inhibitors” (Gilead Sciences, Inc., priority 2017, dated 2026)
